Assay results reported in PubChem BioAssay (NCI).
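In this assay, cells in 96-well plates receive the compound at five concentrations for 48 hours. Endpoints are linearly interpolated between the surrounding concentrations. At the GI50, growth is halved. TGI denotes the concentration required for complete inhibition of growth.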

How the values were obtained:
Assay in all cases: NCI tumour cell line growth inhibition, 48 h
HCT-116 colon = tested on: HCT-116 colon
MCF7 breast = tested on: MCF7 breast
786-0 renal = tested on: 786-0 renal
DLD-1 colon = tested on: DLD-1 colon
HOP-62 NSCLC = tested on: HOP-62 NSCLC
MDA-MB-231 breast = tested on: MDA-MB-231 breast
OVCAR-8 ovarian = tested on: OVCAR-8 ovarian
U251 CNS = tested on: U251 CNS
UO-31 renal = tested on: UO-31 renal
KM12 colon = tested on: KM12 colon
NCI-H23 lung = tested on: NCI-H23 lung
SNB-78 CNS = tested on: SNB-78 CNS
OVCAR-4 ovarian = tested on: OVCAR-4 ovarian
CAKI-1 renal = tested on: CAKI-1 renal
SW-620 colon = tested on: SW-620 colon
MALME-3M melanoma = tested on: MALME-3M melanoma
SK-OV-3 ovarian = tested on: SK-OV-3 ovarian
P388 leukemia = tested on: P388 leukemia
SNB-75 CNS = tested on: SNB-75 CNS
LOX IMVI melanoma = tested on: LOX IMVI melanoma
NCI-H522 lung = tested on: NCI-H522 lung
T-47D breast = tested on: T-47D breast
OVCAR-5 ovarian = tested on: OVCAR-5 ovarian
K-562 leukemia = tested on: K-562 leukemia
COLO 205 colon = tested on: COLO 205 colon
SF-295 CNS = tested on: SF-295 CNS
M19-MEL melanoma = tested on: M19-MEL melanoma
DU-145 prostate = tested on: DU-145 prostate
SR leukemia = tested on: SR leukemia
NCI-H460 lung = tested on: NCI-H460 lung
HL-60(TB) leukemia = tested on: HL-60(TB) leukemia
RPMI-8226 leukemia = tested on: RPMI-8226 leukemia
EKVX NSCLC = tested on: EKVX NSCLC
RXF 393 renal = tested on: RXF 393 renal
IGROV1 ovarian = tested on: IGROV1 ovarian
HCC-2998 colon = tested on: HCC-2998 colon
XF 498 CNS = tested on: XF 498 CNS
LXFL 529 NSCLC = tested on: LXFL 529 NSCLC
A549 NSCLC = tested on: A549 NSCLC
ACHN renal = tested on: ACHN renal
SF-539 CNS = tested on: SF-539 CNS
NCI-H226 lung = tested on: NCI-H226 lung
UACC-62 melanoma = tested on: UACC-62 melanoma
HCT-15 colon = tested on: HCT-15 colon
MDA-MB-435 = tested on: MDA-MB-435
SK-MEL-2 melanoma = tested on: SK-MEL-2 melanoma
SNB-19 CNS = tested on: SNB-19 CNS
SK-MEL-28 melanoma = tested on: SK-MEL-28 melanoma
HS 578T breast = tested on: HS 578T breast
OVCAR-3 ovarian = tested on: OVCAR-3 ovarian
MOLT-4 leukemia = tested on: MOLT-4 leukemia
DMS 114 small cell lung = tested on: DMS 114 small cell lung
HT29 colon = tested on: HT29 colon
SN12C renal = tested on: SN12C renal
TK-10 renal = tested on: TK-10 renal
SK-MEL-5 melanoma = tested on: SK-MEL-5 melanoma
UACC-257 melanoma = tested on: UACC-257 melanoma
HOP-18 NSCLC = tested on: HOP-18 NSCLC
A498 renal = tested on: A498 renal
CCRF-CEM leukemia = tested on: CCRF-CEM leukemia
NCI/ADR-RES ovarian = tested on: NCI/ADR-RES ovarian
SF-268 CNS = tested on: SF-268 CNS
BT-549 breast = tested on: BT-549 breast
MDA-N = tested on: MDA-N
DMS 273 small cell lung = tested on: DMS 273 small cell lung
HOP-92 NSCLC = tested on: HOP-92 NSCLC
PC-3 prostate = tested on: PC-3 prostate
M14 melanoma = tested on: M14 melanoma
P388/ADR leukemia = tested on: P388/ADR leukemia
SN12K1 renal = tested on: SN12K1 renal
KM20L2 colon = tested on: KM20L2 colon

Compound `COc1ccc2c3c(c4cc(OC)c(OC)cc4c2c1)C[C@H]1CCCCN1C3` has a TGI (HCT-116 colon) of 0.011 µM, a TGI (MCF7 breast) of 0.0316 µM and a TGI (786-0 renal) of 0.000212 µM. The TGI (DLD-1 colon) was 0.038 µM, the TGI (HOP-62 NSCLC) was 1.65e-06 µM and the TGI (MDA-MB-231 breast) was 0.00192 nM. It also gave a TGI (OVCAR-8 ovarian) of 0.0231 µM, a TGI (U251 CNS) of 0.0212 µM and a TGI (UO-31 renal) of 4.42e-06 µM. The TGI (KM12 colon) was 1.84e-06 µM, the GI50 (NCI-H23 lung) was 2.01 pM and the TGI (NCI-H23 lung) was 0.000279 µM. It also gave a TGI (SNB-78 CNS) of 0.00897 µM, a TGI (OVCAR-4 ovarian) of 0.00591 µM and a TGI (CAKI-1 renal) of 0.00103 µM. The GI50 (SW-620 colon) was 0.00889 µM, the GI50 (MALME-3M melanoma) was 1.82 pM and the TGI (MALME-3M melanoma) was 9.88e-06 µM. The TGI (SK-OV-3 ovarian) was 0.0149 µM, the TGI (P388 leukemia) was 0.00512 µM and the GI50 (SNB-75 CNS) was 1.78 pM. The TGI (SNB-75 CNS) was 0.000103 µM, the TGI (LOX IMVI melanoma) was 0.029 µM and the GI50 (NCI-H522 lung) was 2.82 pM. For the same compound, the TGI (NCI-H522 lung) was 0.000216 µM.
`COC(=O)/C(=C/c1ccc(OC)cc1)c1cc(OC)c(OC)c(OC)c1` was tested, and the TGI (HCT-116 colon) was 55.3 µM, the TGI (MCF7 breast) was > 100 µM and the TGI (T-47D breast) was > 100 µM. The TGI (786-0 renal) was > 86 µM, the TGI (OVCAR-5 ovarian) was > 100 µM and the TGI (K-562 leukemia) was > 58.4 µM. For the same compound, the TGI (DLD-1 colon) was > 100 µM, the TGI (COLO 205 colon) was 13.7 µM and the TGI (SF-295 CNS) was 8.02 µM. For the same compound, the TGI (M19-MEL melanoma) was > 100 µM, the TGI (HOP-62 NSCLC) was > 51.2 µM and the TGI (DU-145 prostate) was 8.56 µM. The TGI (SR leukemia) was > 19.6 µM, the TGI (MDA-MB-231 breast) was > 100000 nM and the TGI (OVCAR-8 ovarian) was > 100 µM. It also gave a TGI (U251 CNS) of 39 µM, a TGI (NCI-H460 lung) of 45.9 µM and a TGI (HL-60(TB) leukemia) of 3.06 µM. For the same compound, the TGI (UO-31 renal) was 74.9 µM, the TGI (RPMI-8226 leukemia) was 69.5 µM and the TGI (KM12 colon) was 71 µM. For the same compound, the TGI (EKVX NSCLC) was > 100 µM, the TGI (RXF 393 renal) was 3.38 µM and the TGI (NCI-H23 lung) was 26.8 µM. The TGI (IGROV1 ovarian) was > 100 µM, the TGI (HCC-2998 colon) was > 59 µM and the TGI (SNB-78 CNS) was > 100 µM. The TGI (OVCAR-4 ovarian) was > 100 µM, the TGI (XF 498 CNS) was 83.7 µM and the TGI (CAKI-1 renal) was > 100 µM. The TGI (LXFL 529 NSCLC) was > 100 µM, the TGI (A549 NSCLC) was > 100 µM and the TGI (ACHN renal) was > 100 µM. The TGI (SF-539 CNS) was 6.96 µM, the TGI (NCI-H226 lung) was 42.3 µM and the TGI (UACC-62 melanoma) was 37.4 µM. For the same compound, the TGI (HCT-15 colon) was > 100 µM, the TGI (MDA-MB-435) was 0.477 µM and the TGI (SW-620 colon) was > 100 µM. The TGI (MALME-3M melanoma) was > 100 µM, the TGI (SK-MEL-2 melanoma) was > 100 µM and the TGI (SNB-19 CNS) was 98 µM. The TGI (SK-MEL-28 melanoma) was > 100 µM, the TGI (HS 578T breast) was 5.69 µM and the TGI (OVCAR-3 ovarian) was 2.63 µM. For the same compound, the TGI (SK-OV-3 ovarian) was 40.4 µM, the TGI (MOLT-4 leukemia) was > 97.5 µM and the TGI (DMS 114 small cell lung) was > 23.3 µM. For the same compound, the TGI (HT29 colon) was > 74.9 µM, the TGI (SN12C renal) was > 100 µM and the TGI (TK-10 renal) was > 100 µM. The TGI (SK-MEL-5 melanoma) was > 39.3 µM, the TGI (UACC-257 melanoma) was > 84.3 µM and the TGI (HOP-18 NSCLC) was > 100 µM. The TGI (A498 renal) was > 39 µM, the TGI (CCRF-CEM leukemia) was > 55.7 µM and the TGI (SNB-75 CNS) was 5.77 µM. For the same compound, the TGI (LOX IMVI melanoma) was > 100 µM, the TGI (NCI/ADR-RES ovarian) was > 100 µM and the TGI (SF-268 CNS) was > 79.1 µM. For the same compound, the TGI (BT-549 breast) was > 100 µM, the TGI (MDA-N) was 0.43 µM and the TGI (DMS 273 small cell lung) was > 100 µM. For the same compound, the TGI (HOP-92 NSCLC) was > 55.9 µM, the TGI (PC-3 prostate) was > 100 µM and the TGI (M14 melanoma) was > 96.3 µM. For the same compound, the TGI (NCI-H522 lung) was 4.58 µM.
With `CCCCCCCCCCCC1=C(O)C(=O)C=C(O)C1=O` the TGI (HCT-116 colon) was 30.1 µM, the TGI (MCF7 breast) was 42.2 µM and the TGI (OVCAR-5 ovarian) was 24.3 µM. The TGI (K-562 leukemia) was 75.9 µM, the TGI (DLD-1 colon) was 51.9 µM and the TGI (COLO 205 colon) was 27.9 µM. It also gave a TGI (SF-295 CNS) of 17.4 µM, a TGI (HOP-62 NSCLC) of 12.3 µM and a TGI (OVCAR-8 ovarian) of 4.7 µM. The TGI (U251 CNS) was 22.1 µM, the TGI (NCI-H460 lung) was 9.98 µM and the TGI (HL-60(TB) leukemia) was 12.6 µM. It also gave a TGI (UO-31 renal) of 14 µM, a TGI (RPMI-8226 leukemia) of 19.3 µM and a TGI (KM12 colon) of 31.6 µM. The TGI (EKVX NSCLC) was 15.6 µM, the TGI (RXF 393 renal) was 54.6 µM and the TGI (NCI-H23 lung) was 29.7 µM. The TGI (IGROV1 ovarian) was 20.5 µM, the TGI (HCC-2998 colon) was 33 µM and the TGI (SNB-78 CNS) was 149 µM. For the same compound, the TGI (OVCAR-4 ovarian) was 33.2 µM, the TGI (P388/ADR leukemia) was 250 µM and the TGI (CAKI-1 renal) was 15.7 µM. For the same compound, the TGI (A549 NSCLC) was 13.4 µM, the TGI (SF-539 CNS) was 23.3 µM and the TGI (NCI-H226 lung) was 15.4 µM. It also gave a TGI (UACC-62 melanoma) of 10.5 µM, a TGI (HCT-15 colon) of 49.3 µM and a TGI (SW-620 colon) of 55.3 µM. The TGI (MALME-3M melanoma) was 16.5 µM, the TGI (SK-MEL-2 melanoma) was 12.5 µM and the TGI (SNB-19 CNS) was 25.7 µM. For the same compound, the TGI (SK-MEL-28 melanoma) was 37.5 µM, the TGI (OVCAR-3 ovarian) was 14.4 µM and the TGI (SK-OV-3 ovarian) was 21.2 µM. For the same compound, the TGI (MOLT-4 leukemia) was 44.1 µM, the TGI (DMS 114 small cell lung) was 11.9 µM and the TGI (HT29 colon) was 50.2 µM. The TGI (SN12C renal) was 12.9 µM, the TGI (SK-MEL-5 melanoma) was 10.4 µM and the TGI (SN12K1 renal) was 30.3 µM. For the same compound, the TGI (UACC-257 melanoma) was 16.7 µM, the TGI (HOP-18 NSCLC) was 14.6 µM and the TGI (A498 renal) was 20.9 µM. The TGI (CCRF-CEM leukemia) was 36.7 µM, the TGI (SNB-75 CNS) was 17.7 µM and the TGI (LOX IMVI melanoma) was 38 µM. It also gave a TGI (NCI/ADR-RES ovarian) of 16.4 µM, a TGI (SF-268 CNS) of 18 µM and a TGI (KM20L2 colon) of 35.4 µM. It also gave a TGI (DMS 273 small cell lung) of 15.7 µM, a TGI (HOP-92 NSCLC) of 11.7 µM and a TGI (NCI-H522 lung) of 66.5 µM.
